Earlier results as cited in paper PMC5571359, “Screening the Medicines for Malaria Venture Pathogen Box across Multiple Pathogens Reclassifies Starting Points for Open-Source Drug Discovery” (Antimicrobial Agents and Chemotherapy, 2017).
Like-named read-outs stand apart in the source and are kept apart here.

System: HepG2
Details: cited from earlier work
[1] = read-out: HepG2 PBox CC50 µM, HepG2 cytotoxicity, ref PBox supporting information
[2] = ref Pbox supporting information
[3] = HepG2, ref PBox supporting information
[4] = read-out: HepG2 PBox CC50, HepG2, ref PBox supporting information

Structure (SMILES) | CC50 [1] [µM] | further results
COc1ccc(OC(C)C(=O)Nc2ccc(Cl)cc2C)cc1 (stereo not drawn) [MMV202458] | > 100 | –
COc1ccc2nc(C)cc(OCC(=O)Nc3ccccc3OC)c2c1 [MMV687188] | 57.4 | –
CC(C)(C)c1ccc(N[C@@H]2CCCC[C@H]2NC(=O)c2ccco2)cc1 [MMV675969] | – | HepG2 PBox CC20 μMc [2]: 35.9 µM
O=C1O[C@@H](COc2ccon2)CN1c1cc(F)c(C2=CCN(Cc3ccccc3)CC2)c(F)c1 [MMV687813] | – | CC50: 30.4 µM
N#Cc1ccc(-c2ccc(OCC(N)=O)cc2)cc1 [MMV053220] | > 100 | –
COc1cc(C(F)(F)F)nc2ccc(C)c(N)c12 [MMV047015] | > 100 | –
Nc1cccnc1Nc1ccc(Cl)cc1 [MMV676524] | 9 | –
CNCCC(Oc1ccc(C(F)(F)F)cc1)c1ccccc1 (stereo not drawn) [MMV001561] | – | HepG2 PBox CC20 [3]: 9.0 µM
Cn1ncc2c(N3CCOCC3)nc(NCCc3c[nH]c4ccccc34)nc21 [MMV676382] | – | HepG2 PBox CC20 μMc [2]: 4.6 µM
CC(C)(C)n1nc(Cc2cccc3ccccc23)c2c(N)ncnc21 [MMV676599] | – | HepG2 PBox CC20 [3]: 19 µM
O=C(C1CCN(c2nnc(-n3cccc3)s2)CC1)N1CCC(Cc2ccccc2)CC1 [MMV676478] | > 100 | –
CC(C)n1ncc2c(C(=O)NCC(c3cccs3)N3CCOCC3)cc(-c3ccccc3)nc21 (stereo not drawn) [MMV676406] | 58 | –
COc1ccc(-c2cc(NC(=O)c3ccc(F)cc3Cl)ccc2OC)cc1 [MMV676526] | > 100 | –
CCCCc1ccc(NC(=O)Nc2ccc(O[C@H]3CCCC[C@@H]3N(C)c3ccccc3)c(F)c2)cc1 [MMV676063] | – | HepG2 PBox CC20 μMc [2]: 5.8 µM
Brc1c(-c2ccc3c(c2)OCO3)nc2ncccn12 [MMV676377] | > 100 | –
OC[C@H]1O[C@@H](n2c3ccc(Cl)cc3c3c(-c4cc5ccccc5o4)ncnc32)C(O)[C@H]1O (stereo partly drawn) [MMV688921] | – | CC50 [4]: 10 µM
CCC(Sc1nc2ccccc2o1)C(=O)Nc1nnc(C)s1 (stereo not drawn) [MMV611037] | > 100 | –
NC(=O)c1cc(-c2ccsc2)ccc1OCCOc1ccccc1 [MMV687138] | > 100 | –
CCOC(=O)c1cc(-c2csc(Nc3c(C)cc(C)cc3C)n2)on1 [MMV676461] | 24.4 | –
Cc1cc(OCC(=O)NCc2ccccc2)c2cc(Br)ccc2n1 [MMV687747] | 31 | –
COC(=O)c1c(NC(=O)c2cc3ccccc3oc2=O)sc2c1CCN(Cc1ccccc1)C2 [MMV676480] | – | HepG2 PBox CC20 μMc [2]: 12.3 µM
Nc1ncnc2c1ncn2C[C@@H](O)[C@@H](O)C(=O)O [MMV689255] | – | HepG2 PBox CC20 [3]: >80 µM
CCC(C)NC(=O)c1ccc(NC(=O)C2(c3ccccc3)CCCC2)cc1 (stereo not drawn) [MMV146306] | > 100 | –

Structure (SMILES) | CC50 [1] [µM] | further results
COc1ccc(-c2cnc3cnc(-c4cccc(OC(C)C)c4)cn23)cc1 [MMV688270] | – | HepG2 PBox CC20 μMc [2]: 24.3 µM
COc1ccc(C2(C(=O)Nc3ccc(Br)cc3)CCCC2)cc1 [MMV200748] | > 100 | –
CC(C)(C(=O)Nc1ccc(F)cc1)n1cc(-c2ccccc2F)cn1 [MMV687239] | > 100 | –
O=C(Nc1cccnc1)c1c(O)c2cccc3c2n(c1=O)CC3 [MMV676395] | > 100 | –
CC(C)(C)OC(=O)N1CCN(c2nccc(-c3ccc(-c4ccc(Cl)cc4)s3)n2)CC1 [MMV688416] | – | CC50 [4]: > 50 µM
CCc1ccc([C@@H]2C[C@H](C(F)(F)F)n3ncc(C(=O)NCc4ccc(OC)cc4)c3N2)cc1 [MMV687180] | 50.6 | –
c1ccc(Oc2ccc(-c3cncc(-c4ccc5[nH]ccc5c4)n3)cc2)cc1 [MMV688178] | – | HepG2 PBox CC20 μMc [2]: 25.7 µM
O=C(c1[nH]nc2c1CCCC2)N1CCN(Cc2ccc3c(c2)OCO3)CC1 [MMV676389] | > 100 | –
CC(=O)N(CCN(C(=O)c1ccc(F)cc1)c1ccccc1)c1ccccc1 [MMV676064] | – | HepG2 PBox CC20 μMc [2]: 39 µM
CCc1ccc(S(=O)(=O)Nc2cc(CN3CCN(CCC(C)C)CC3)ccc2C)cc1 [MMV688124] | 27.4 | –
CCc1nc2ccccc2n1CC(O)COc1cc(C)ccc1Cl (stereo not drawn) [MMV676449] | 43.2 | –
CCc1nc2ccc(C(=O)NCc3ccc4c(c3)OCO4)cn2c1N(C)Cc1cccs1 [MMV407539] | – | HepG2 PBox CC20 μMc [2]: 18.6 µM
COC(=O)c1ccc(F)cc1NS(=O)(=O)c1cccc(-c2cnn(Cc3ccccc3)c2)c1 [MMV688350] | – | CC50 [4]: 10 µM
O=C(CCC1CCCCC1)Nc1cccc(-c2nnc(-c3ccco3)o2)c1 [MMV676589] | > 100 | –
CC1COC2(CCN(c3nc(=O)c4cc(C(F)(F)F)cc([N+](=O)[O-])c4s3)CC2)O1 (stereo not drawn) [MMV676603] | > 100 | –
COc1ccc(Cn2cnc3c(-c4ccco4)nc(Cl)nc32)cc1 [MMV687170] | > 100 | –
O=C(Nc1nnc(-c2ccc(Cl)s2)o1)c1ccc(Cl)s1 [MMV676501] | 50.1 | –
COc1cccc(OC)c1C(=O)Nc1ccc(Cl)c(-c2nc3ccccc3s2)c1 [MMV676472] | > 100 | –
Cc1cc(Cl)ccc1NC(=O)CCc1ccc(S(=O)(=O)NCC(C)C)cc1 [MMV161996] | > 100 | –
Cc1ccccc1C(=O)N1N=C(Nc2ccccc2)SC1(C)C [MMV688771] | – | HepG2 PBox CC20 μMc [2]: 8 µM
O=C(NCCc1c[nH]c2ccccc12)c1cc2ccccc2oc1=O [MMV676539] | > 100 | –
CN1CCC[C@@H]1CCO[C@](C)(c1ccccc1)c1ccc(Cl)cc1 [MMV637229, clemastine, reference compound] | – | HepG2 PBox CC20 μMc: 9.3 µM
COCC(C)NC(=O)CSc1ncnc2sc(-c3ccccc3)cc12 (stereo not drawn) [MMV676536] | – | HepG2 PBox CC20 μMc [2]: >80 µM

Structure (SMILES) | CC50 [1] [µM] | further results
Cn1ccnc1CNCCS(=O)(=O)c1cccc(Nc2ccc(-c3cccc(F)c3)cn2)c1 [MMV688466] | – | CC50 [4]: 46.1 µM
Nc1c2c(nc3sc4c(c13)CCCC4)CCCC2 [MMV676588] | 34.9 | –
c1coc(CNc2nc(N3CCCCC3)nc3ccccc23)c1 [MMV676401] | 18.6 | –
CCc1c(C)nc(-n2nc(C)cc2NC(=O)c2ccccc2SC)[nH]c1=O [MMV676477] | 1.3 | –
Cc1nnc(NCc2cccc(Cl)c2)c2ccccc12 [MMV676555] | 76 | –
CCCc1ccc(S(=O)(=O)Nc2ccc(CN3CCN(CC4CC4)CC3)cc2)cc1 [MMV688125] | 17.7 | –
NCC(c1cccs1)S(=O)(=O)c1ccccc1 (stereo not drawn) [MMV688557] | – | CC50 [4]: 35.4 µM
COc1cccn2c(C(=O)N3CCCCC3)c(C(F)(F)F)nc12 [MMV1110498] | – | HepG2 PBox CC20 μMc [2]: >80 µM
FC(F)(F)c1nnc2ccc(Cl)nn12 [MMV069458] | > 100 | –
O=C(C1CCN(c2cc(-n3cccc3)ncn2)CC1)N1CCc2ccccc2C1 [MMV687172] | > 100 | –
Cc1cc(C)cc(COc2ccc3c(C)c(CCC(=O)O)c(=O)oc3c2C)c1 [MMV676476] | > 100 | –
Cc1nc2ccccn2c1C(=O)NCc1ccc(Cl)cc1 [MMV012074] | > 100 | –
COc1ccc(Nc2ccccc2NC(=O)c2ccc(O)nc2)cc1 [MMV676554] | 42.5 | –
COc1ccc(N(CCc2cccc(C)n2)C(=O)C2CCCCC2)cc1 [MMV675996] | – | HepG2 PBox CC20 μMc [2]: >80 µM
COc1ccc2nc(C)cc(OCC(=O)NCc3ccccc3)c2c1 [MMV687189] | > 100 | –
Clc1ccc(-n2cc(COc3ccnc4ccccc34)nn2)cc1 [MMV675994] | – | HepG2 PBox CC20 [3]: 13.6 µM
COc1cccc(OCC(=O)c2ccc(Br)cc2)c1 [MMV676379] | > 100 | –
NC(=O)c1cc(Br)ccc1OCCOc1ccccc1 [MMV687243] | > 100 | –
Cc1cc(O)nc(-n2nc(C)cc2C)n1 [MMV393995] | – | CC50: 60.7 µM
Cc1nn(C(=O)Nc2cccc(C(F)(F)F)c2)c(C)c1Sc1ncccn1 [MMV688552] | – | HepG2 PBox CC20 μMc [2]: 30.7 µM
CCOC(=O)NC(=O)c1ccsc1NC(=O)c1nc2ccccc2s1 [MMV090930] | 47 | –
O=C(NCc1ccco1)N1CCN(Cc2ccc(Cl)s2)CC1 [MMV688555] | – | CC50 [4]: > 100 µM
O=C(Nc1nnc(-c2ccc(Cl)cc2)o1)c1cccc(C(F)(F)F)c1 [MMV102872] | 9 | –

Structure (SMILES) | CC50 [1] [µM] | further results
O=C(NC1=NCCS1)c1sc2cc(F)ccc2c1Cl [MMV676584] | > 100 | –
Cc1cc(OCC(=O)Nc2ccc(C(C)C)cc2)n(C)c(=O)c1C#N [MMV1198433] | – | HepG2 PBox CC20 μMc [2]: >80 µM
Cc1ccc2nc(Cl)c(CNCc3cccs3)cc2c1 [MMV676439] | > 100 | –
N#Cc1nc(-c2ccccc2F)oc1NCCc1ccccc1 [MMV676384] | > 100 | –
Nc1ncnc2c1c(Cc1cccc3ccccc13)nn2CC1CCNCC1 [MMV676182] | – | HepG2 PBox CC20 [3]: >80 µM
CC(=O)NCC1CN(c2ccc(-c3ccc(CNCc4cn[nH]n4)cc3)c(F)c2)C(=O)O1 (stereo not drawn) [MMV688327] | > 100 | –
CCCCS(=O)(=O)Nc1ccc2cnn(C)c2c1 [MMV687145] | > 100 | –
CNc1snc(C)c1C(=O)NCCOc1ccc(OC)cc1 [MMV688554] | – | CC50 [4]: > 100 µM
O=C1[C@@H](Oc2ccccc2)[C@@H](c2ccc(Cl)cc2)N1CCn1cnc2c(NCc3ccccc3)ncnc21 [MMV688352] | – | CC50 [4]: 3 µM
O=C(c1ccc(F)cc1)N(CCNc1ccccc1)c1ccccc1 [MMV676204] | – | HepG2 PBox CC20 μMc [2]: 18.5 µM
COc1ccc(-c2nnc3ccc(-c4cccc(C(C)C)c4)cn23)cc1OC [MMV688313] | – | HepG2 PBox CC20 μMc [2]: 7.5 µM
COC(=O)C1=C(C)NC(C)=C(C(=O)OC(C)C)C1c1cccc2nonc12 (stereo not drawn) [MMV001493] | – | HepG2 PBox CC20 μMc: 66 µM
CC(C)(C)C(=O)N(CCCCCCN1C[C@H](O)[C@@H](O)[C@H](O)[C@H]1CO)C1CCCCCC1 [MMV688543] | – | CC50 [4]: > 50 µM
O=C(c1cc2ccccc2o1)N1CCN(Cc2ccc3c(c2)OCO3)CC1 [MMV676520] | > 100 | –
CC1=NN(c2nc3ccccc3s2)C(=O)C1Cc1cccc2ccccc12 (stereo not drawn) [MMV676558] | 21.9 | –
O=C1O[C@@H](CO)CN1c1cc(F)c(C2=CCN(Cc3ccccc3)CC2)c(F)c1 [MMV687729] | – | CC50: 38.8 µM
Nc1ncnc2c1ncn2[C@@H]1O[C@H](COS(=O)(=O)NC(=O)c2ccccc2O)[C@@H](O)[C@H]1O [MMV687700] | > 100 | –
Cc1ccc(NC(=O)CC2COc3ccccc3O2)cc1Cl (stereo not drawn) [MMV676431] | 66.7 | –
CC(=O)NCC1CN(c2ccc(-c3ccc(CO)cc3)c(F)c2)C(=O)O1 (stereo not drawn) [MMV688508] | – | CC50 [4]: > 100 µM
CCc1nc2ccc(Cl)cn2c1C(=O)NCc1ccc(N2CCC(c3ccc(OC(F)(F)F)cc3)CC2)cc1 [MMV687696] | > 100 | –
COc1ccc(-c2nc(-c3cccc(NC(=O)Cc4ccc(F)cc4)c3)no2)cc1OC [MMV676571] | > 100 | –
